Earlier results on one molecule are cited in US20170232026A1, “PHARMACEUTICAL COMPOSITION IN […] FOR VETERINARY USE AS A PROMOTER SYSTEM AND BIO-ADHESIVE IN ANT[…], AND METHOD FOR THE PRODUCTION THEREOF” (UNIVERSIDAD NACIONAL AUTONOMA DE MEXICO, priority 2014, published 2017).

In the case of `CC[C@H](C)[C@H]1O[C@]2(CC[C@@H]1C)C[C@@H]1C[C@@H](C/C=C(\C)[C@@H](O[C@H]3C[C@H](OC)[C@@H](O[C@H]4C[C@H](OC)[C@@H](O)[C@H](C)O4)[C@H](C)O3)[C@@H](C)/C=C/C=C3\CO[C@@H]4[C@H](O)C(C)=C[C@@H](C(=O)O1)[C@]34O)O2` [Ivermectin, 22, 23-dihydroavermectin B1a], the “solubility in ethanol at 95%” value (ethanol at 95%) is “soluble”. In addition, the solubility in methanol result (methanol) is listed as “soluble”. The solubility in water result (water) is given as “insoluble”.
